# Experimental data as given in patent publication US9388142B2, “Quinazolinone derivatives as PARP inhibitors” (MERCK PATENT GMBH, priority 2012, dated 2016).
# Tests used:
# [1] = target: GST-tagged Tankyrase-2 (873-1166 aa) (Homo sapiens, UniProt Q9H2K2); test: biochemical
# Source text: (§1) aq (aqueous), h (hour), g (gram), L (liter), mg (milligram), MHz (Megahertz), min. (minute), mm (millimeter), mmol (millimole), mM (millimolar), m.p. (melting point), eq (equivalent), mL (milliliter), L (microliter), ACN (acetonitrile), AcOH (acetic acid), CDCl3 (deuterated chloroform), CD3OD (deuterated methanol), CH3CN (acetonitrile), c-hex (cyclohexane), DCC (dicyclohexyl carbodiimide), DCM (dichloromethane), DIC (diisopropyl carbodiimide), DIEA (diisopropylethyl-amine), DMF (dimethylformamide), DMSO (dimethylsulfoxide), DMSO-d6 (deuterated dimethylsulfoxide), EDC (1-(3-dimethyl-amino-propyl)-3-ethylcarbodiimide), ESI (Electro-spray ionization), EtOAc (ethyl acetate), Et2O (diethyl ether), EtOH (ethanol), HATU (dimethylamino-([1,2,3]triazolo[4,5-b]pyridin-3-yloxy)-methylene]-dimethylammonium hexafluorophosphate), HPLC (High Performance Liquid Chromatography), i-PrOH (2-propanol), K2CO3 (potassium carbonate), LC (Liquid Chromatography), MeOH (methanol), MgSO4 (magnesium sulfate), MS (mass spectrometry), MTBE (Methyl tert-butyl ether), NaHCO3 (sodium bicarbonate), NaBH4 (sodium borohydride), NMM (N-methyl morpholine), NMR (Nuclear Magnetic Resonance), PyBOP (benzotriazole-1-yl-oxy-trispyrrolidino-phosphonium hexafluorophosphate), RT (room temperature), Rt (retention time), SPE (solid phase extraction), TBTU (2-(1-H-benzotriazole-1-yl)-1,1,3,3-tetramethyluromium tetrafluoro borate), TEA (triethylamine), TFA (trifluoroacetic acid), THF (tetrahydrofuran), TLC (Thin Layer Chromatography), UV (Ultraviolet). Description of the In Vitro Assays Abbreviations: GST=Glutathione-S-transferase FRET=Fluorescence resonance energy transfer HTRF®=(homogenous time resolved fluorescence) HEPES=4-(2-hydroxyethyl)-1-piperazine ethanesulfonic acid buffer DTT=Dithiothreitol BSA=bovine serum albumin CHAPS=detergent; CHAPS=3[(3-cholamidopropyl)dimethylammonio]-1-propanesulfonate Streptavidin-XLent® is a high grade streptavidin-XL665 conjugate for which the coupling conditions have been optimized to yield a conjugate with enhanced performances for some assays, particularly those requiring high sensitivity.
# (§2) The autoparsylation assay is run in two steps: the enzymatic reaction in which GST-tagged Tankyrase-1, resp Tankyrase-2 transferred biotinylated ADP-ribose to itself from biotinylated NAD as co-substrate and the detection reaction where a time resolved FRET between cryptate labelled anti-GST bound to the GST tag of the enzyme and Xlent® labelled-streptavidin bound the biotin-parsylation residue is analysed. The autoparsylation activity was detectable directly via the increase in HTRF signal.
# (§3) The autoparsylation assay is performed as 384-well HTRF® (Cisbio, Codolet, France) assay format in Greiner low volume nb 384-well microtiter plates and is used for high throughput screen. […] The reaction is stopped by the addition of 1 μl 50 mM EDTA solution. […] The ratio of the emission signals is determined. The full value used is the inhibitor-free reaction. […] The inhibitory values (IC50) are determined using either the program Symyx Assay Explorer® or Condosseo® from GeneData.
# [2] = target: T1, GST-tagged Tankyrase-1 (1023-1327 aa) (Homo sapiens, UniProt O95271); test: biochemical; settings: read-out: IC50 tankyrase 1 (enzyme assay)
# T1 construct: GST-tagged Tankyrase-1 (1023-1327 aa)
# T1 sequence (O95271 1023-1327): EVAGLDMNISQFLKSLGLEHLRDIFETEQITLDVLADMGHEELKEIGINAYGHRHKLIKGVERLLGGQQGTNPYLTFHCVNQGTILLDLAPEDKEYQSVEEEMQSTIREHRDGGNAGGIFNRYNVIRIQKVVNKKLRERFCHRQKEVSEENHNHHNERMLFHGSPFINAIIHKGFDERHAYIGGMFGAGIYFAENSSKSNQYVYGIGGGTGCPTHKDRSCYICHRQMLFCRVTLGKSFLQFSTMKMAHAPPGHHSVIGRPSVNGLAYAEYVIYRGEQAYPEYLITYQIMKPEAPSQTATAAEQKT
# Source text: as §1, §2, §3
# Chain of GST-tagged Tankyrase-2 (873-1166 aa) (Q9H2K2 873-1166): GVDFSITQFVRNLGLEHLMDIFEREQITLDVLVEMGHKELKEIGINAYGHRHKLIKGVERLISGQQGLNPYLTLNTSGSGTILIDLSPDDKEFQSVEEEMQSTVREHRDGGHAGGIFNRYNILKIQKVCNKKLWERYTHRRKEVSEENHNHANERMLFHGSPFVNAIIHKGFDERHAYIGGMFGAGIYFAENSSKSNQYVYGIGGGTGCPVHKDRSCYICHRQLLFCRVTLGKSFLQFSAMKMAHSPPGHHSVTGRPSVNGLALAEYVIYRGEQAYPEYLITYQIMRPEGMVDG
structure (smiles),measurement,setting,value
"CCC(O)(CC)c1ccc(-c2nc3ccc(F)cc3c(=O)[nH]2)cc1 [Compound A14, 2-[4-(1-ethyl-1-hydroxy-propyl)phenyl]-6-fluoro-3H-quinazolin-4-one]",IC50,[1],300 to 3000 nM
same,IC50,[2],< 300 nM
"O=c1[nH]c(-c2ccc(C3(O)CCCC3)cc2)nc2ccc(F)cc12 [Compound A16, 6-fluoro-2-[4-(1-hydroxycyclopentyl)phenyl]-3H-quinazolin-4-one]",IC50,[1],300 to 3000 nM
same,IC50,[2],< 300 nM
"CC(C)(O)c1ccc(-c2nc3c(F)cc(F)c(F)c3c(=O)[nH]2)cc1 [Compound A26, 5,6,8-trifluoro-2-[4-(1-hydroxy-1-methyl-ethyl)-phenyl]-3H-quinazolin-4-one]",IC50,[1],300 to 3000 nM
same,IC50,[2],< 300 nM
"Cc1cc(F)cc2c(=O)[nH]c(-c3ccc(N4CCC(O)CC4)cc3)nc12 [Compound A29, 6-fluoro-2-[4-(4-hydroxy-piperidin-1-yl)-phenyl]-8-methyl-3H-quinazolin-4-one]",IC50,[1],300 to 3000 nM
same,IC50,[2],300 to 3000 nM
"Cc1cc(F)cc2c(=O)[nH]c(-c3ccc(N4CCC(CO)CC4)cc3)nc12 [Compound A31, 6-fluoro-2-[4-(4-hydroxymethyl-piperidin-1-yl)-phenyl]-8-methyl-3H-quinazolin-4-one]",IC50,[1],300 to 3000 nM
same,IC50,[2],300 to 3000 nM
